In BindingDB's records for doi:10.1021/jm00164a002 (Syntex Research, 1990):

Biological target: T1, Neutrophil elastase (Homo sapiens, UniProt P08246)
T1 sequence (P08246 whole entry): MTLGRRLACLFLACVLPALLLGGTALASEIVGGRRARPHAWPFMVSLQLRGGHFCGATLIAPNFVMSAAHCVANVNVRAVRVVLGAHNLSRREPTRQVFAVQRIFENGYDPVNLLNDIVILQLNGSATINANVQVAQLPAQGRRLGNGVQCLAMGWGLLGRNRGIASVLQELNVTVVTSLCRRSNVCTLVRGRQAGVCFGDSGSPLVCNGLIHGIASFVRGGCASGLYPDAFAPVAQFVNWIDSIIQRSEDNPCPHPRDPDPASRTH
Assay: Component deacylation rate constant for interaction with human leukocyte elastase
Details: for kon: read-out: kon (M-1-s-1)

Row | SMILES | Ki [nM] | kon [M⁻¹ s⁻¹] | koff [s⁻¹]
1 | CCSc1nc2ccc(NC(C)=O)cc2c(=O)o1 | 1590 | 10000 | –
2 | CCCNc1nc2ccccc2c(=O)o1 [2-Propylamino-benzo[d][1,3]oxazin-4-one] | 100 | – | –
3 | CCSc1nc2cc(OC)c(OC)cc2c(=O)o1 | – | 100000 | –
4 | CCOc1nc2cc(N(C)C)ccc2c(=O)o1 | – | 2880 | 1.41e-05
5 | Cc1cc(C)c2c(=O)oc(NC(C)C)nc2c1 | 6.31 | 2570 | 1.51e-05
6 | CC(C)Nc1nc2cc(N(C)C)ccc2c(=O)o1 | – | 1000 | 0.000479
7 | CC(C)C[C@H](NC(=O)C1CCCN1c1nc2ccccc2c(=O)o1)C(N)=O (some centres not stated) | – | 15100 | 0.000324
8 | Cc1cc(N(C)C)cc2nc(NC(C)C)oc(=O)c12 | – | 102 | 0.000129
9 | CCCNC(=O)Nc1ccc2c(=O)oc(NC(C)C)nc2c1 | – | 12600 | 0.017
10 | NC(=O)[C@H](Cc1ccccc1)NC(=O)[C@@H]1CCCN1c1nc2ccccc2c(=O)o1 | 39.8 | 14400 | 0.000537
11 | CCc1cccc2c(=O)oc(NC(C)C)nc12 | – | 24000 | 0.024
12 | CC(C)C[C@H](NC(=O)[C@@H]1CCCN1c1nc2ccccc2c(=O)o1)C(=O)NCC(N)=O | – | 11000 | 0.000229
13 | CC(C)CN(CC(C)C)c1nc2ccccc2c(=O)o1 | – | 151 | 0.000977
14 | COc1cc(C)c2c(=O)oc(NC(C)C)nc2c1 | – | 20900 | 0.000794
15 | CC(=O)NCc1nc2ccccc2c(=O)o1 | – | 174 | 0.00132
16 | COC(=O)[C@@H](CC(C)C)Nc1nc2ccccc2c(=O)o1 | 39.8 | 39800 | 0.00138
17 | CC(C)Cc1nc2ccccc2c(=O)o1 | – | 20000 | –

Row | SMILES | Ki [nM] | kon [M⁻¹ s⁻¹] | koff [s⁻¹]
18 | O=c1oc(/C=C/c2ccccc2)nc2ccccc12 | – | 389 | 0.00316
19 | CCSc1nc2ccc(C)cc2c(=O)o1 | 159 | 1e+06 | –
20 | CC(C)Nc1nc2ccccc2c(=O)o1 [2-Isopropylamino-benzo[d][1,3]oxazin-4-one] | – | 58900 | 0.00309
21 | COc1cc2nc(SCc3ccccc3)oc(=O)c2cc1OC | 2000 | 5750 | 0.0123
22 | O=c1oc(-c2ccccc2)nc2ccccc12 [2-Phenyl-4H-3,1-benzoxazin-4-one (3)] | – | 10000 | –
23 | CCCCN(CCCC)c1nc2ccccc2c(=O)o1 | 5010 | 269 | 0.00123
24 | CCOC(=O)[C@H](C)Nc1nc2ccccc2c(=O)o1 | 794 | 2570 | 0.00224
25 | Cc1cc(N)cc2nc(NC(C)C)oc(=O)c12 | – | 229 | 1.78e-05
26 | O=c1oc(NCCc2ccccc2)nc2ccccc12 | 1590 | 1120 | 0.00191
27 | CCCc1cc(N(C)C)cc2nc(NC(C)C)oc(=O)c12 | – | 646 | 0.000182
28 | CCCCNc1nc2ccccc2c(=O)o1 [2-Butylamino-benzo[d][1,3]oxazin-4-one] | 79.4 | – | –
29 | NC(=O)[C@H](Cc1ccccc1)Nc1nc2ccccc2c(=O)o1 | – | 1200 | 0.00038
30 | COC(=O)[C@H](CC(C)C)NC(=O)[C@H](CC(C)C)Nc1nc2cc(C)cc(C)c2c(=O)o1 | – | 1260 | –
31 | CCCCNc1nc2cc(N)ccc2c(=O)o1 | – | 2820 | 0.00182
32 | COC(=O)[C@H](Cc1ccc(O)cc1)Nc1nc2ccccc2c(=O)o1 | – | 1900 | 0.000851
33 | COC(=O)[C@H](CC(C)C)Nc1nc2ccccc2c(=O)o1 | 159 | 2290 | 0.000389
34 | COc1cc2nc(SCc3c[nH]cn3)oc(=O)c2cc1OC | 1000 | 6920 | 0.00759

Continued, values first:

Row | Ki [nM] | kon [M⁻¹ s⁻¹] | koff [s⁻¹] | SMILES
35 | 794 | 5010 | 0.00371 | CCCC(C)Nc1nc2cccc(C)c2c(=O)o1 (configuration not stated)
36 | 794 | 7760 | 0.00562 | CCC(CC)Nc1nc2cccc(C)c2c(=O)o1
37 | – | 347000 | 6.61e-05 | C/C=C/c1cccc2nc(OCC)oc(=O)c12
38 | 31.6 | 129000 | 0.00371 | Cc1cccc2nc(C(F)(F)F)oc(=O)c12
39 | 31600 | – | – | Cc1ccc2nc(C)oc(=O)c2c1
40 | 631 | – | – | Cc1cccc2c(=O)oc(NC(C)C)nc12
41 | – | 112 | 7.41e-05 | CCC(C)CNc1nc2cccc(C)c2c(=O)o1 (configuration not stated)
42 | 100 | 10000 | – | O=c1oc(C(F)(F)C(F)(F)C(F)(F)F)nc2ccccc12
43 | – | 4900 | 0.151 | CNc1nc2cccc(C)c2c(=O)o1 [5-Methyl-2-methylamino-benzo[d][1,3]oxazin-4-one]
44 | 159 | 100000 | – | O=c1oc(C(F)(F)F)nc2ccccc12
45 | – | 7080 | 1.12e-05 | Cc1cccc2nc(OCC(C)C)oc(=O)c12
46 | – | 1.51e+06 | 0.00141 | CCSc1nc2cccc(C)c2c(=O)o1
47 | – | 1e+07 | 0.00468 | CCOc1nc2cccc(C(Br)Br)c2c(=O)o1
48 | 1.58 | – | – | Cc1cccc2nc(NC(C)C)oc(=O)c12 [2-Isopropylamino-5-methyl-benzo[d][1,3]oxazin-4-one]
49 | – | 2e+06 | – | CCSc1nc2c(C)cccc2c(=O)o1
50 | 100 | – | – | O=c1oc(C(F)(F)C(F)(F)F)nc2ccccc12
51 | – | 309000 | 7.08e-05 | CCCc1cccc2nc(OCC)oc(=O)c12
52 | – | 2000 | – | Cc1nc2c(N)cccc2c(=O)o1
53 | – | 251000 | 0.000355 | CSc1nc2cccc(C)c2c(=O)o1
54 | 6.31 | 56200 | 0.000339 | CCCNc1nc2cccc(C)c2c(=O)o1 [5-Methyl-2-propylamino-benzo[d][1,3]oxazin-4-one]
55 | – | 129000 | 0.000537 | CCCCNc1nc2cccc(CC)c2c(=O)o1 [2-Butylamino-5-ethyl-benzo[d][1,3]oxazin-4-one]
56 | – | 10000 | – | CC(C)(C)c1nc2ccccc2c(=O)o1
